In patent US7205004B2, “Herbal composition for treatment of neuronal injuries and neuronal degeneration, methods to prepare the same and uses thereof” (priority 2000, dated 2007):

Legend:
Type in all cases: in vivo
mice [1] = assay: Effects on the weight of immune organs; details: mice n = 15, 7 days; Bu-Nao-Gao 4 g/Kg orally, hydrocortisone 50 mg/Kg intramuscularly
Method: Mice were randomly distributed, and were given Bu-Nao-Gao (4 g/Kg) orally, or hydrocortison (50 mg/Kg) or saline intramuscularly, for seven days. 24 hours after the last administration, mice were sacrificed.

mice [2] = assay: Effects on antibody production in mice (sheep erythrocyte immunization); details: mice n = 15, immunized with 10% sheep erythrocytes day 2, measured day 8; Bu-Nao-Gao 4 g/Kg orally, hydrocortisone 50 mg/Kg i.m., 7 days
Method: Mice were randomly distributed, and were given Bu-Nao-Gao (4 g/Kg) orally, or hydrocortison (50 mg/Kg) or saline intramuscularly, for seven days. On day 2, they were immunized with 10% sheep erythrocytes intra-peritoneally. On day 8, erythrocyte agglutination as well as cell lysis were measured respectively.

mice [3] = details: mice n = 15; Bu-Nao-Gao oral 4 g/Kg daily, cyclophosphomide 0.03 g/kg i.m. every other day
Method: Mice were given Bu-Nao-Gao (oral at 4 g/Kg daily), or cyclophosphomide (0.03 g/kg, intramuscularly every other day) or saline (oral, daily). On day 3, mice were given 0.02 ml of 7% DNCB subcutaneously on the back, and were boosted three days later in the same way. 9 days later, 0.02 ml of 1% DNCB was applied to the left ear. This area was removed by a ear puncher of 9 mm diameter and the extent of ear swelling represents the extent of delayed-type hypersensitivity (for results, see Table 6).

Structure (SMILES)	Index of immune organ (mg/g X +/− SD), Spleen (mice [1])	Index of immune organ (mg/g X +/− SD), thymus (mice [1])	Agglutinin (33) (HC50) (mice [2])	Erythorcytolysin (32) (mice [2])	DNCB (extent of swolleness) (mice [3])
C[C@]12CCC(=O)C=C1CC[C@@H]1[C@@H]2[C@@H](O)C[C@@]2(C)[C@H]1CC[C@]2(O)C(=O)CO [Hydrocortisone]	2.66 ± 0.40 mg/g	1.37 ± 0.26 mg/g	126.7 +/− 19.3	37.5 +/− 4.2	
O=P1(N(CCCl)CCCl)NCCCO1 (centres unmarked) [cyclo-phosphamidum, cyclophosphomide]					12.26 +/− 8.8
